One data set has as its system MOLM-13 tumors. Nature of the data set: Efficacy of menin-MLL inhibitor in combination with DHODH inhibitor in MOLM-13 (KMT2A-r) IV model. The data set is classed as in vivo. The settings on record: MOLM-13 IV, NSG mice. An excerpt:
15) In Vivo Efficacy of Menin-MLL Inhibitor in Combination with DHODH Inhibitor in Disseminated Models of Human Acute Myeloid Leukemia (MOLM-13 and OCI-AML) 15A) Efficacy of Menin-MLL Inhibitor in Combination with DHODH Inhibitor in MOLM-13 (KMT2A-r) IV Model in NSG Mice
Day 0 is the day of tumor cell implantation and study initiation. In the MOLM-13 efficacy study, mice bearing IV MOLM-13 xenograft tumors were randomly assigned to treatment groups 5 days post-tumor cell engraftment.

For data set [1], the system named is OCI-AML3 cells. Nature of the data set: In vitro proliferation (spheroid, Incucyte), menin-MLL inhibitor with DHODH inhibitor, OCI-AML3. The format is cell-based, human. The settings on record: 8 days.
Source text: Spheroid-like growth was monitored in real-time by non-invasive live-cell imaging using the 4× objective of the Incucyte ZOOM live cell imaging system (Essen BioScience), and acquiring images on Day 8. […] The DMSO content was normalized to 0.3% and the percent confluence from the DMSO well was used as baseline response. […] Data from 2 independent experiments from MOLM-13 or 3 independent experiments from OCI-AML3 cells were pooled and analyzed.
The subject of another data set is OCI-AML3 tumors. The experiment in a line: Efficacy of menin-MLL inhibitor in combination with DHODH inhibitor in OCI-AML3 (NPM1c) IV model. The settings on record: NSG mice. The data set is classed as in vivo. An excerpt: 15B) Efficacy of Menin-MLL Inhibitor in Combination with DHODH Inhibitor in OCI-AML3 (NPM1c) IV Model in NSG Mice In the OCI-AML3 efficacy study, mice bearing IV OCI-AML3 xenograft tumors were randomly assigned to treatment groups 5 days post-tumor cell engraftment.

Data set [2] deals with iCell Cardiomyocytes2 (hSC-CMs). The experiment in a line: Ca2+-fluorescence assay in human pluripotent stem cell-derived cardiomyocytes (CTCM human). The data set is classed as cell-based. The arrangement: key to Hazard Scoring Color @ 0.1 μM / Hazard Scoring Color @ 0.2 μM / Hazard Scoring Color @ 0.5 μM / Hazard Scoring Color @ 1 μM / Hazard Scoring Color @ 2.5 μM / Hazard Scoring Color @ 5 μM / Hazard Scoring Color @ 0.3 μM / Hazard Scoring Color @ 3 μM / Hazard Scoring Color @ 10 μM / Hazard Scoring Color @ 30 μM: Green: No concern; Yellow: Low concern; Red: High concern; Black: Very high concern due to arrhythmic events. As to the method:
7) Cardio-Electrophysiological Effects of the Testing Compounds in Synchronously Beating Human Pluripotent Stem Cell-Derived Cardiomyocytes (hSC-CMs) Using a Ca^2+-Fluorescence Assay (CTCM Human)
Compounds were tested in the 96-well plates.
Compounds were tested at 0.1 μM, 0.2 μM, 0.5 μM, 1 μM, 2.5 μM and 5 μM (n=4 per dose) on Cor.4U®-Cardiomyocytes or on iCell® Cardionyocytes2.
Alternatively, compounds were tested at 0.1 μM, 0.3 μM; 1 μM, 3 μM, 10 μM and 30 μM (n=4 per dose) mostly on iCell® Cardiomyocytes2.
Vehicle control: Dimethylsulfoxide (DMSO). The solutions of the compound in DMSO or its solvent (final concentration of 0.1% DMSO; n=8).
Tested compounds were dissolved in DMSO at 1000-fold the intended concentrations. A compound “mother-plate” was made, containing the test compounds and positive and negative controls at 1000-fold the final concentrations. At the experiment day, these stock solutions were diluted with Tyrode (Sigma), supplemented with 10 mM HEPES (Gibco), to 2-fold the intended concentration (in round bottom compound plates). Final DMSO concentration in test solutions and vehicle control was 0.1%.
hSC-CMs (Cor.4U® Cardiomyocytes) were obtained from CDI (Ncardia, Germany). Cells are pre-plated and seeded in fibronectin-coated 96-well plates at a density suited to form a monolayer and maintained in culture in a stage incubator (37° C., 5% CO2), according to the instructions of the cell provider.
Second line hSC derived cardiomyocyte called iCell® Cardiomyocytes2 were purchased from FUJIFILM Cellular Dynamics (USA). The experiments with test drugs are carried out 5 to 7 days after plating the cells onto the plate to have a living, beating monolayer of hiPSC-derived cardiomyocytes. The beating monolayer in 96-well-plates are normally taken from 2 Vials of frozen iCell® Cardiomyocytes2 (≈5 million cells/vial), which will be plated onto three 96-well plates (≈50K/well).
At least one hour before the start of the experiments the normal cell medium was replaced with Tyrode solution with Calcium dye (see below).
Cal 520 dye (AAT Bioquest) was dissolved in 11 ml of Tyrode supplemented with 10 mM HEPES and warmed up to 37 C before adding to the cells.
35 μl cell culture medium was removed from each well and replaced with 35 μl of pre-warmed Cal 520 dye solution and cell plate was incubated for 45 min at 37° C./5% CO2. Cells were incubated for 5 min at 37° C.
Spontaneous electrical activity is recorded, using Cal520™ (AAT Bioquest) calcium fluorescence-dye signalling. This dye integrates the total intracellular calcium activity over the whole well. A bottle of Ca1520 dye (50 μg, MW: 1103/mol) is dissolved with 50 μl DMSO as a stock solution of 0.9 mM. 50 μL of the stock solution of the dye was added to 10 ml Tryodes solution to have dye concentration of 4.5 μM. Subsequently, 35 μl of this dye solution was added into each well, to have a final dye concentration of 1.58 μM. The current dye protocol on this CTCM human assay was established recently (Ivan Kopljar et al, Journal of Pharmacological and toxicological methods 2018. 91: 80-86; Lu et al., Tox Sci 2019. 170 (2): 345-356).
Fluorescent signals (Ca^2+ transient morphology) were measured using the Functional Drug Screen System (FDSS/μCell; Hamamatsu, Japan) and the recordings were subsequently analyzed off-line, using appropriate software e.g., Notocord.
The cell plate was loaded into the FDSS/μCell for a test run: Ca^2+ transients were measured for 4 minutes to check for synchronous beating of the cardiomyocytes in each well. All 96 wells were measured simultaneously (sampling interval: 0.06 s, short exposure time: 10 ms; excitation wavelength 480 nm; emission wavelength 540 nm; FDSS/μCell warmed to 37° C.).
During the compound addition step, 100 μl of the respective double-concentrated test solutions was pipetted into each well simultaneously.
Data were analyzed off-line using appropriate software e.g., Notocord-Hem (version 4.3). […]

The subject of data set [3] is OCI-AML3 cells. Nature of the data set: Proliferation assay (spheroid), OCI-AML3. The data set is classed as cell-based, human. The settings on record: 8 days. The method, then:
The anti-proliferative effect of menin/MLL protein/protein interaction inhibitor test compounds was assessed inhuman leukemia cell lines. The cell line MOLM-14 harbors a MLL translocation and expresses the MLL fusion protein MLL-AF9, respectively, as well as the wildtype protein from the second allele. OCI-AML3 cells that carry the NPM1c gene mutation were also tested. […] KO-52 was used as a control cell line containing two MLL (KMT2A) wildtype alleles in order to exclude compounds that display general cytotoxic effects.
KO-52 and OCI-AML3 cell lines were propagated in alpha-MEM (Sigma Aldrich) supplemented with 20% heat-inactivated fetal bovine serum (HyClone), 2 mM L-glutamine (Sigma Aldrich) and 50 μg/ml gentamycin (Gibco).
In order to assess the anti-proliferative effects, 200 MOLM-14 cells, 200 OCI-AML3 cells or 300 KO-52 cells were seeded in 200 μl media per well in 96-well round bottom, ultra-low attachment plates (Costar, catalogue number 7007). Cell seeding numbers were chosen based on growth curves to ensure linear growth throughout the experiment. Test compounds were added at different concentrations and the DMSO content was normalized to 0.3%. Cells were incubated for 8 days at 37° C. and 5% CO2. Spheroid like growth was measured in real-time by live-cell imaging (IncuCyteZOOM, Essenbio, 4× objective) acquiring images at day 8. Confluence (%) as a measure of spheroid size was determined using an integrated analysis tool.
In order to determine the effect of the test compounds over time, the confluence in each well as a measure of spheroid size, was calculated. Confluence of the highest dose of a reference compound was used as baseline for the LC (Low control) and the confluence of DMSO treated cells was used as 0% cytotoxicity (High Control, HC).
HC=High Control: Mean confluence (%) (DMSO treated cells);
Dose-response equation was used for the plot of % Effect vs Log10 compound concentration with a variable slope and fixing the maximum to 100% and the minimum to 0%. 2b) MEIS1 mRNA Expression Assay

The mark [4] stands for this setting: Compound 22 0.0125 mg/kg (so in the source) PO daily 28 days.
[5] abbreviates: Compound 22 0.063 mg/kg PO daily 28 days.
Setting [6] is: Compound 22 0.125 mg/kg PO daily 28 days.
Setting [7] is: Compound 22 0.25 mg/kg PO daily 28 days.
Where [8] appears, read: efficacious dose in mouse xenograft models of 30 mg/kg, (mouse, human), estimated.

With `CCn1c(CO)nn(-c2cc3c(C(C)C)cn(-c4ccccc4C)c(=O)c3cc2F)c1=O` [Compound 22, 6-(4-Ethyl-3-(hydroxymethyl)-5-oxo-4,5-dihydro-1H-1,2,4-triazol-1-yl)-7-fluoro-4-isopropyl-2-(o-tolyl)isoquinolin-1(2H)-one], the “% ILS” value is reported as “*125%” with MOLM-13 tumors (setting [4]), “*111%” in the data set on MOLM-13 tumors (setting [5]), “*60%” in the data set with OCI-AML3 tumors (setting [6]) and “*65%” with OCI-AML3 tumors (setting [7]). The “Median Survival” value with MOLM-13 tumors (setting [4]) was 40.5; with MOLM-13 tumors (setting [5]) it was 38; in the data set on OCI-AML3 tumors (setting [6]) it was 41.5; with OCI-AML3 tumors (setting [7]), 43. In the data set on OCI-AML3 cells [1], the “Growth inhibition, monotherapy (in words)” value is given as “potent growth inhibition”.

As a reminder, the IC50 is the concentration at which inhibition is half-maximal. On to `CCN(C(=O)c1cc(F)ccc1Oc1nncnc1N1CCC2(C1)CN([C@H](CCCN(C)CCOC)C(C)C)C2)C(C)C` [Compound A1], for which the “Hazard Scoring Color @ 0.1 μM” value in data set [2] (0.1 μM, 30 min, iCell Cardiomyocytes2 (Table 12)) is listed as “Green”. For the same compound, the “Hazard Scoring Color @ 0.3 μM” value in data set [2] (0.3 μM, 30 min, iCell Cardiomyocytes2 (Table 12)) is “Green”. In addition, the “Hazard Scoring Color @ 1 μM” value in data set [2] (1 μM, 30 min, iCell Cardiomyocytes2 (Table 12)) is reported as “Green”. For the same compound, the “Hazard Scoring Color @ 3 μM” value in data set [2] (3 μM, 30 min, iCell Cardiomyocytes2 (Table 12)) is on record as “Green”. In data set [2] (10 μM, 30 min, iCell Cardiomyocytes2 (Table 12)), the “Hazard Scoring Color @ 10 μM” value is reported as “Green”. For the same compound, the “Hazard Scoring Color @ 30 μM” value in data set [2] (30 μM, 30 min, iCell Cardiomyocytes2 (Table 12)) is “yellow”. For the same compound, in data set [2] (setting [8]), the “Margin CTCM human 10 μM vs free Cmax” value was over 16 and the “Margin CTCM human 30 μM vs free Cmax” value is given as over 45. The compound further displayed an IC50 in the data set on OCI-AML3 cells [3] of 80 nM.

The record behind these values is patent US20240261292A1, “COMBINATION THERAPIES” (Janssen Pharmaceutica NV, priority 2021, published 2024).
